For 88 molecules, melting point results are on record in a melting point compilation (Tetko et al.; mined from patent text by program, amines drawn as free bases though some values may be those of a salt).

Each structure is given as a SMILES string.

Turning to `CCCOCCN(CC)c1ccc(-c2ccc3c(c2)C=C(C(=O)O)CCN3C=O)cc1`, the melting point lay within 169 to 171 °C.

Turning to `Cc1nc2c(O)cccc2c(Cl)c1C`, the melting point amounted to 120 °C.

Consider `CSCCn1nc(-c2cc(C(C)(C)C)c(O)c(C(C)(C)C)c2)c2cccnc21`, for which the melting point lay in the range of 104 to 106 °C.

As for `O=C(O)c1ncccc1Cl`, the melting point was 126 to 128 °C.

In turn, `CCCC(=O)NCc1cccc2c1CN(C1CCC(=O)NC1=O)C2=O` (stereo not drawn) yielded a melting point of 244 to 246 °C.

`COc1cccc(CNc2ncnc3c2sc2nc(N4CCOCC4)c4c(c23)CC(C)(C)CC4)c1OC` showed a melting point of 219 to 220 °C.

`CCCCCCOc1nccc(C(N)=O)c1Cl` showed a melting point of 75 to 77 °C.

As to `CCC(=O)c1cccc(Oc2nc(OC)cc(OC)n2)c1C(=O)OC`, the melting point was 120 to 122 °C.

`O=C1CCCN(C(=O)c2ccccc2)C(=O)CCc2cc(Cl)ccc21` displayed a melting point of 129 to 131 °C.

Take `CC(c1ncnc(Cl)c1Cl)C(O)(Cn1cncn1)c1ccc(F)cc1F` (stereo not drawn): the melting point was 124 °C.

For `COc1ccc2c(c1)C1(O)C(=O)c3ccccc3C1(O)O2` (stereo not drawn), the melting point lay within 186 to 189 °C.

`O=C(CN1C(=O)C2(COc3cc(F)c(F)cc32)c2ccccc21)Nc1ccccc1F` (stereo not drawn) registered a melting point of 97 to 100 °C.

Turning to `CCOC(=O)c1cn(-c2nonc2C)c2cc(F)c(F)c(C)c2c1=O`, the melting point was determined as 174 °C.

On to `Cc1cc(C)c2cccc(OCc3c(Cl)ccc(S(=O)(=O)N4CCC[C@H]4C(=O)N4CCN(S(=O)(=O)c5ccc(C#N)cc5)CC4)c3Cl)c2n1`, for which the melting point is 156 to 158 °C.

Take `CC(C)(C)NC(=O)N(Cc1ccccc1)CC(O)C(Cc1ccccc1)NC(=O)C(CC(N)=O)NC(=O)NCc1ccccc1` (stereo not drawn): the melting point is 156 to 158 °C.

In the case of `CCOC(=O)c1cn(-c2ccccn2)c2occc2c1=O`, the melting point was in the range of 199 to 200 °C.

In turn, `O=C1NCC(CN2C(=O)C3(COc4cc5c(cc43)OCO5)c3ccccc32)O1` (stereo not drawn) gave a melting point of 195 to 202 °C.

For `COC(=O)C1CCCn2c(=O)[nH]c(=O)n21` (stereo not drawn), the melting point lay within 215 to 216 °C.

`O=C1CCC(C2CCCCC2)CC1C(=S)Nc1ccccc1` (stereo not drawn): the melting point was determined as 150 °C.

Molecule `NS(=O)(=O)c1ccc(-c2oc3cc(F)ccc3c(=O)c2-c2ccccc2F)cc1` had a melting point of 188 °C.

For `OCc1cncn1Cc1ccccc1`, the melting point lay within 131 to 135 °C.

In the case of `Cc1oc2c(NC(=O)c3c(Cl)cccc3Cl)cc(C(N)=O)cc2c1C`, the melting point is > 250 °C.

Regarding `COc1cc2nc(N3CCc4c(cccc4-c4cnccc4N)C3)[nH]c(=O)c2cc1OC`, the melting point is > 300 °C.

`C#CCSc1ccccc1C=CCN(O)C(N)=O` had a melting point of 141 to 142 °C.

On to `CC(=O)Nc1ccc2nc(CN3[C@H](C)CCC[C@@H]3C)ccc2c1`, for which the melting point lay in the range of 120 to 122 °C.

In the case of `COc1cccc(NC=C2C(=O)OC(C)(C)OC2=O)c1`, the melting point was determined as 108 °C.

The molecule `CC1=C(C(=O)NC(C)(C)C)C(c2ccccc2Cl)C(C(=O)O)=C(COCCn2c(C)nc3ccccc32)N1` (stereo not drawn) gave a melting point of 187 to 188 °C.

Take `NC(=O)c1nnc2n1-c1ccc(Cl)cc1C(c1ccccc1Cl)=NC2`: the melting point was in the range of 226 to 228 °C.

On to `Cc1cccc(Cl)c1-n1nc(C(C)C)c(C(N)=O)c1N`, for which the melting point was in the range of 72 to 74 °C.

Take `NC(=O)N1c2ccccc2CC(=NO)c2ccccc21`: the melting point lay in the range of 230 to 232 °C.

Regarding `CCC(CC)Nc1c([N+](=O)[O-])cc(CC(=O)O)c(C(C)C)c1[N+](=O)[O-]`, the melting point was in the range of 116 to 118 °C.

The molecule `CN1CCc2c(c(Br)cc3nc(OCc4ccccc4)c(OCc4ccccc4)nc23)C1` had a melting point of 147 °C.

On to `Cc1cc(I)cc(C=CC#N)c1`, for which the melting point came to 98 °C.

With `O=C(CN1CS(=O)(=O)CC1=O)N1CCN(C(c2ccccc2)c2ccccc2)CC1`, the melting point lay within 209 to 211 °C.

The molecule `COCO[C@H]1C(=O)Nc2ccccc2S[C@H]1c1ccc(OC)cc1` came in with a melting point of 125 to 126 °C.

In the case of `CC1NC(=O)NN=C1c1ccccc1O` (stereo not drawn), the melting point lay within 257 to 261 °C.

Consider `CCOc1c(C(F)(F)F)ncn(-c2c(Cl)cc(C(F)(F)F)cc2[N+](=O)[O-])c1=O`, for which the melting point was in the range of 97.5 to 100 °C.

The molecule `O=C(Nc1cnc2ccc(Cl)cc2c1-c1ccccc1)Nc1c(F)cccc1F` had a melting point of 228 to 229 °C.

As for `COc1ccc2c(c1)c(CC(=O)OCc1cccnc1)c(C)n2C(=O)c1ccc(Cl)cc1`, the melting point lay in the range of 116 to 118 °C.

`CC1(C)CC(=O)c2cc(C#N)c(N3CCCCC3)nc2C1` registered a melting point of 99 to 100 °C.

In turn, `FC(F)(F)c1ccc(-c2ccc(Cl)nc2)cc1` displayed a melting point of 98 to 101 °C.

`CCCCc1oc2ccccc2c1C(O)c1ccc(-c2cc(Br)c(O)c(Br)c2)cc1` (stereo not drawn) displayed a melting point of 60 to 62 °C.

`CC(=O)c1cc(-c2ccncc2)sc1Oc1cc(F)ccc1F` had a melting point of 119 to 121 °C.

In the case of `CN(C)Cc1ccc(CSCCNC(=N)N[N+](=O)[O-])o1`, the melting point was 103 to 104 °C.

In turn, `Cc1ccc(C(O)c2c(OCc3ccccc3)c(=O)ccn2CCO)cc1` (stereo not drawn) came in with a melting point of 206 to 207 °C.

As for `Cc1cn2c(=O)c(CCN3CCC(C(=O)c4ccc(F)cc4)CC3)cnc2n1Cc1ccccc1`, the melting point stood at 157 °C.

In turn, `COc1cc(OC)nc(NC(=O)NS(=O)(=O)c2ccccc2C(CF)OC(C)=O)n1` (stereo not drawn) had a melting point of 176 to 178 °C.

Molecule `O=C(NCC(=O)N1c2ccccc2N(Cc2ccccc2)C(=O)[C@H]2CCC[C@H]21)c1ccccc1[N+](=O)[O-]` (relative stereo) registered a melting point of 132 to 135 °C.

Molecule `Cc1ccc(C=NNC(=O)OC(C)(C)C)cc1C` returned a melting point of 168 to 169 °C.

Molecule `COc1ccc(C(=O)C=C2c3ccccc3C(=O)c3ccccc32)cc1OC` came in with a melting point of 160 °C.

Take `O=C(NCCCc1ccncc1)N1CCc2ccccc2C1`: the melting point fell in the range of 76 to 79 °C.

In the case of `Cc1ccc(C(=O)O)c(F)c1C1=NC(C)(C(C)C)C(=O)N1` (stereo not drawn), the melting point is 164 to 170 °C.

For `Cc1ccc(Nc2c(C)cc(Cl)cc2Cl)c(CC(=O)N(C)C)c1`, the melting point fell in the range of 119 to 124 °C.

Take `O=C(O)c1cccc2c1CCCc1ccccc1-2`: the melting point was 137 to 139 °C.

The molecule `COC(=O)/C=C/c1ccc(OC2Cc3ccccc3C2)cc1` registered a melting point of 115 to 116 °C.

For `Cc1cc(Cl)ccc1N=CN(C)SSN(C)C=Nc1ccc(Cl)cc1C`, the melting point fell in the range of 56 to 57 °C.

Consider `COc1ccc2ncccc2c1C1OC(=O)NC1=O` (stereo not drawn), for which the melting point lay within 144 to 146 °C.

On to `Cc1c(CNCC2CCOCC2)[nH]c2c(C)c(NC(=O)c3ccc(OC[C@@H]4CCCO4)cc3)ccc12`, for which the melting point is 184 to 185 °C.

Regarding `O=C(O)COc1cccc2c1OCc1sc(SCCC(c3ccccc3)c3ccccc3)nc1-2`, the melting point was 112 to 114 °C.

Regarding `CCCS(=O)(=O)N[C@@H](CC(C)C)C(=O)N[C@@H](C(C)C)[C@@H](O)c1c(-c2ccccc2)c1=O`, the melting point was in the range of 195 to 196 °C.

Turning to `C#CCCCOC(=O)NC(=O)C(c1ccccc1)c1ccccc1`, the melting point worked out at 109 °C.

`COc1cc(N)c(Cl)cc1C(C)=O` registered a melting point of 114 to 116 °C.

In turn, `NCC(O)COc1cccc(CN2CCCCC2)c1` (stereo not drawn) returned a melting point of 74 to 76.5 °C.

For `Cc1cc(Cl)c2[nH]ncc2n1`, the melting point was 218 °C.

`CCc1c(C=O)c2ccc(C(N)=O)cc2n1Cc1ccccc1Cl` yielded a melting point of 260 to 261 °C.

`Oc1ccc(OCCN2CCCCC2)cc1`: the melting point is 148 to 150 °C.

With `COc1cc(C2=Nc3ccc(N4CCCC4)cc3C(=O)C2)ccc1OCc1ccccc1`, the melting point lay in the range of 304 to 306 °C.

Turning to `O=c1[nH]c2ccc3c(c2[nH]1)OC(CO)CC3` (stereo not drawn), the melting point turned out to be 240 °C.

For `CN(C)C(=O)c1nc(-c2cnccn2)nc2c1c1ccc(Cl)cc1n2C`, the melting point lay in the range of 272 to 273 °C.

For `CSc1nn2c(NCCN(C)C)cc(C)nc2c1S(=O)(=O)c1ccccc1`, the melting point lay in the range of 190 to 191 °C.

Molecule `CCCc1c(-c2ccc(C(=O)OC)cc2)oc2cc(S(=O)(=O)Cl)ccc2c1=O` gave a melting point of 128 °C.

In turn, `CC(C)(C)OC(=O)NC(Cc1ccccc1)C(=O)Oc1ccc(/C=c2\[nH]c(=O)/c(=C/c3ccccc3)[nH]c2=O)nc1` (stereo not drawn) showed a melting point of 188 °C.

Turning to `O=C(CO)Nc1nc2c(Cl)cccc2s1`, the melting point is 242 to 245 °C.

As for `COC(=O)Cc1cc2ccc(OC)cc2n(Cc2ccccc2)c1=O`, the melting point lay in the range of 118 to 120 °C.

In turn, `CCOC(=O)[C@@H]1C[C@H]([N+](=O)[O-])[C@@H](C(=O)O)[C@H](OC(CC)CC)[C@@H]1Sc1ccc(C)cc1` showed a melting point of 135 to 136 °C.

As for `O=C(NO)c1ccc(C(=O)NOCCC23CC4CC(CC(C4)C2)C3)cc1`, the melting point lay within 198 to 200 °C.

For `O=S1(=O)NCN(CCF)c2cc(Cl)c(Br)cc21`, the melting point is 159 to 162 °C.

Regarding `O=S(=O)(Oc1ccc(-c2cc3ccccc3[nH]2)cc1O)c1ccccc1`, the melting point was determined as 158 °C.

In turn, `Cc1cccc(-c2c(=O)[nH]c3cc(Cl)c(Cl)cc3[n+]2[O-])c1` showed a melting point of 260 to 262 °C.

The molecule `CCN(CC)CCOC(=O)c1ccc2nc3n(c(=O)c2c1)C(C)CC3=Cc1ccccc1` (stereo not drawn) returned a melting point of 125 to 130 °C.

As for `CCNC(=O)Nc1cnc2ccc(-c3ccc(N)c(OC)c3)nc2n1`, the melting point is > 310 °C.

`N#Cc1sc2cc(N)ccc2c1Cl` registered a melting point of 158 to 160 °C.

`CCc1nc(/C=C/c2cn(-c3ccccc3)nc2O)c(C)s1` showed a melting point of 184 to 186 °C.

Turning to `O=Cc1cc(=O)c(OCc2ccccc2)c(C(=O)c2ccc(Cc3ccc(F)cc3)o2)o1`, the melting point lay in the range of 69 to 72 °C.

The molecule `O=C(c1n[nH]c2ccccc12)N1CCCCC1` registered a melting point of 201 to 203 °C.

`CC(O)=C(C(=O)OC(c1ccccc1)c1ccccc1)N1C(=O)C(NC(=O)C(NC(=O)OC(C)(C)C)c2ccccc2)C1SS(=O)(=O)c1ccc(C)cc1` (stereo not drawn) registered a melting point of 182 to 184 °C.

For `Cc1ccc(C)c(OCCCC(C)(C)C(=O)Nc2c(F)cc(F)cc2F)c1`, the melting point fell in the range of 82 to 83 °C.

As to `Cc1c(CO)c(CO)c2n1Cc1ccccc1C2`, the melting point is 99 to 101 °C.
